From patent US20170184604A1, “DD1ALPHA RECEPTOR AND USES THEREOF IN IMMUNE DISORDERS” (THE GENERAL HOSPITAL CORPORATION, priority 2014, published 2017)

What was measured:
naïve CD4+CD62L+ T cells = assay: iTreg cell development assay; assay type: cell-based, mouse; settings: for frequency of Foxp3+CD4+ T cells (iTreg): anti-CD3 and anti-CD28
Experimental: Enriched human CD4+ T cells and CD8+ T cells were stained with CFSE (1 μM) and stimulated with plate-bound anti-CD3 antibody (3 μg/ml) together with 2, 5, or 10 μg/ml of DD1α-Ig proteins or control Ig proteins. The proliferations of CD4+ T or CD8+ T cells were determined by the percentages of CFSE-labeled CD4+ T or CD8+ T cells at the 72-hour culture. The levels of cytokines IFN-γ and TNF-α in culture supernatant were analyzed by ELISA at the 48-hour culture. […] The proliferation and cytokine production of CD4+ T cells were determined as FIG. 5A. […] The proliferations of CD4+ T cells were determined by percentage of CFSE-diluted CD4+ cells on day 3. The levels of cytokines IFN-γ and IL-2 in culture supernatant were analyzed by ELISA on day 2. […] Data are shown as mean±SD and representative of three experiments.
The cell culture plates were coated with anti-CD3 (145-2C11, eBioscience) together with mDD1α-Ig, mPD-L1-Ig or control Ig proteins. CD4+CD62L+naïve T cells were purified from splenocytes freshly isolated from Wt mice using CD4+CD62L+ T Cell Isolation Kit II (Miltenyi Biotec) and cultured in complete RPMI-1640 media added by anti-CD28 (37.51, eBioscience) and TGF-β (BioLegend) on the anti-CD3 & Ig proteins-coated plates. On day 3, cells were stained with anti-CD4-APC (RM4-5, eBioscience) and anti-mouse Foxp3-PE (FJK-16s, eBioscience) and analyzed for Foxp3 expression on CD4+ T cells by flow cytometry.

PD-L1 = assay: Ig fusion protein staining of 293T transfectants (flow cytometry); assay type: binding, human; settings: cell surface staining
DD1α = assay: Homophilic interaction assay (Ig protein-coated beads on transfected 293T cells); assay type: binding, human
Experimental: (FIG. 3A) Defective apoptotic cell engulfment of DD1α−/− m-BMDMs. Engulfments of Wt and DD1α−/− apoptotic thymocytes by Wt and DD1α−/− BMDMs were assessed by flow cytometry as described previously. The pHrodo-labeled apoptotic thymocytes were incubated with m-BMDMs for 30 min and the phagocytosis was determined by measuring the positive pHrodo-containing macrophages. Graph represents mean±SD from three independent experiments. (FIG. 3B) Homophilic DD1α interaction. […] The binding was examined under an inverted microscope (left panels) and also determined from the optical density (O.D.) at 492 nm (shown at the right). […] Binding was determined by counting the bound cells per 100 μm^2 and normalized by cell number bound to untreated plate. […] The bead bound His-DD1α (33-194) proteins were eluted and detected by immunoblotting using anti-His antibody. […] DD1α-transfected cells were treated or untreated with 1 mM bis(maleinido)hexane (BMH) for 1 hour, and DD1α protein was analyzed by western blotting under non-reducing condition. […] The phagocytosis of MCF7/DD1α KD cells expressing empty vector (EV), DD1α or DD1α-ΔIgV was determined as in FIG. 2A. […]

binding to PD-L1 transfectants (PD-L1): not to PD-L1 or TIM-3 transfectants
Substance: DD1α-Ig: the extracellular region of DD1α fused with the immunoglobulin G Fc segment
iTreg cell generation (naïve CD4+CD62L+ T cells; alone without TGF-β): did not affect | frequency of Foxp3+CD4+ T cells (iTreg) (naïve CD4+CD62L+ T cells; 1 ng/ml TGF-β, control Ig 14.2%): 31.4% | frequency of Foxp3+CD4+ T cells (iTreg) (naïve CD4+CD62L+ T cells; 2 ng/ml TGF, control Ig 32.6%): 51.7% | iTreg cell development (naïve CD4+CD62L+ T cells; in the presence of TGF-β): significantly enhanced | binding to IgV domain-deleted mutant DD1α on the cell surface (DD1α; 293 cells transfected with mutant-DD1α (IgV domain-deletion)): abolished this interaction | binding to complete DD1α proteins expressed on the cell surface (DD1α; 293 cells transfected with wt-DD1α): bound
